Source: patent US20250197641A1, “OPTICAL ABSORBENT” (priority 2023, published 2025)

Assays:
Format in all cases: physicochemical
[1] = Solubility of the absorbent in methylene chloride; settings: room temperature (about 25° C.)
Protocol: The solubility of the absorbent was evaluated. Solubility was determined based on the following criteria by evaluating the solubility of the absorbent in the solvent (MC, Methylene Chloride) at room temperature (about 25° C.).

[2] = Absorption spectra of absorption membrane before and after high temperature/high humidity evaluation (Test Example 2); settings: 85% relative humidity, 120 hours; for ΔA = 100×(Af−Ai)/Ai / Δλ = 100×(λf−λi)λi: 85° C.; for Af, transmittance at the absorption maximum wavelength / λf, absorption maximum wavelength: absorption membrane after 85° C.; for Ai, transmittance at the absorption maximum wavelength / λi, absorption maximum wavelength: absorption membrane before 85° C.
Excerpt: FIGS. 4 to 6 are the absorption spectra of the absorption membranes prepared in Test Example 1 using the absorbents of Embodiments 1 to 3, respectively. FIGS. 7 to 9 are the absorption spectrum of the absorption membrane prepared in Test Example using the absorbents of Comparative Examples 1 to 3, respectively. In the FIGS., the spectra indicated before reliability is the result immediately after preparing the absorption membrane, and the spectra indicated after reliability is the result after high temperature/high humidity evaluation was performed on the absorption membrane. The high temperature/high humidity evaluation is an evaluation where the absorption membrane is maintained at a temperature of 85° C. under a relative humidity of 85% for 120 hours. In Tables 4 and 5, Af is the transmittance at the absorption maximum wavelength of the absorption membrane maintained at 85° C. under 85% relative humidity for 120 hours and λf is the absorption maximum wavelength for after case. Ai is the transmittance at the absorption maximum wavelength of the absorption membrane before being maintained at 85° C. under 85% relative humidity for 120 hours and λi is the absorption maximum wavelength for before case. In Tables 4 and 5, ΔA is a value calculated as 100×(Af−Ai)/Ai, and Δλ is a value calculated as 100×(λf−λi)λi.

[3] = Pyrolysis temperature (Td 5%) analysis by TGA; settings: 25-800° C., 10° C./min, N2
Protocol: The Td 5% is a value obtained through TGA (Thermogravimetric Analysis) analysis. It is the value (Td 5%) at a weight loss of 5% confirmed under the conditions of a temperature range of 25° C. to 800° C., a temperature increase rate of 10° C./min, and a nitrogen (N2) atmosphere of 60 cm^3/min.
Thermogravimetric Analysis (TGA) of the chemical compound was performed by using Scinco's TGA N-1000 equipment. The analysis was performed by using approximately 3 mg of sample (chemical compound) and the analysis was conducted under conditions of a temperature range of 25° C. to 800° C., a temperature increase rate of 10° C./min, and nitrogen (N2) atmosphere of 60 cm^3/min. The value at […] (Td 5%) was used as the Td decomposition temperature.

[4] = Transmittance of absorption membrane before and after reliability evaluation (Test Example 1); settings: for 425~465 nm Tave, Δ / 425~465 nm Tmin, Δ / 466~480 nm Tave, Δ / 466~480 nm Tmin, Δ / 480~560 nm Tave, Δ / λmax Tmax (transmittance at the absorption maximum), Δ: change before/after 85° C.; for 425~465 nm Tave, Δ / 425~465 nm Tmin, Δ / 466~480 nm Tave, Δ / 466~480 nm Tmin, Δ / 480~560 nm Tave, Δ / λmax Tmax (transmittance at the absorption maximum), Δ / 425~465 nm Tave, A / 425~465 nm Tmin, A / 466~480 nm Tave, A / 466~480 nm Tmin, A / 480~560 nm Tave, A: 85% RH, 120 hours; for 425~465 nm Tave, B / 425~465 nm Tmin, B / 466~480 nm Tave, B / 466~480 nm Tmin, B / 480~560 nm Tave, B: silicone resin membrane about 6 μm, before reliability evaluation; for 425~465 nm Tave, A / 425~465 nm Tmin, A / 466~480 nm Tave, A / 466~480 nm Tmin, A / 480~560 nm Tave, A: silicone resin membrane, after 85° C.
Protocol: The transmittance spectrum was measured using a spectrophotometer (Manufacturer: Perkinelmer, Product Name: Lambda 750 Spectrophotometer) on a specimen obtained by cutting the measurement object (e.g., an absorption membrane) so that the width and height were 10 mm and 10 mm, respectively. The transmittance spectrum was measured for each wavelength according to the equipment manual. The specimen was placed on a straight line between a measuring beam of the spectrophotometer and a detector and the transmittance spectrum was confirmed by setting the incident angle of the measuring beam to 0°. The incident angle of 0° is a direction substantially parallel to the surface normal direction of the specimen. The average transmittance within a certain wavelength range in the transmittance spectrum is the result of measuring the transmittance at each wavelength while increasing the wavelength by 1 nm starting from the shortest wavelength in the wavelength range, and then calculating the arithmetic average of the measured transmittances. The maximum transmittance is the maximum transmittance among the transmittances measured while increasing the wavelength by 1 nm and the minimum transmittance is the minimum transmittance among the transmittances measured while increasing the wavelength by 1 nm. For example, the average transmittance within the wavelength range of 350 nm to 360 nm is the arithmetic mean of the transmittance measured at the wavelength of 350 nm, 351 nm, 352 nm, 353 nm, 354 nm, 355 nm, 356 nm, 357 nm, 358 nm, 359 nm, and 360 nm. The maximum transmittance within the wavelength range of 350 nm to 360 nm is the highest transmittance measured at wavelengths of 350 nm, 351 nm, 352 nm, 353 nm, 354 nm, 355 nm, 356 nm, 357 nm, 358 nm, 359 nm and 360 nm and the minimum transmittance within the wavelength range of 350 nm to 360 nm is the lowest transmittance among the transmittances measured at wavelengths of 350 nm, 351 nm, 352 nm, 353 nm, 354 nm, 355 nm, 356 nm, 357 nm, 358 nm, 359 nm, and 360 nm.
A coating solution was prepared by mixing silicone resin (Dow Chemical, RSN-0217), absorbent, and solvent (cyclohexanone) as resin components. The mixing ratio of the resin component, absorbent, and solvent was set to be 69.3:0.99:29.7 in weight ratio (resin:absorbent:solvent).
The coating solution was coated on a transparent substrate (a glass substrate manufactured by SCHOTT) and maintained at 140° C. for about 2 hours to form an absorption membrane with a thickness of about 6 μm.
Tables 2 and 3 below summarize the transmittance of the absorption membrane before and after reliability evaluation in the ultraviolet and near-infrared regions. The reliability evaluation is an evaluation of maintaining the absorption membrane at 85° C. and under 85% relative humidity condition for 120 hours. In Table 2, B refers to the result before performing the reliability evaluation and A refers to the result after performing the reliability evaluation. Additionally, in Table 2, λmax means the transmittance at the absorption maximum.
In Tables 2 and 3, Δ is the rate of change (%) of each characteristic before and after the reliability evaluation, calculated as 100×[…]/B, where […], B is the value indicated by B in Table 2. In Table 2, Tmax refers to the highest transmittance within the corresponding wavelength region, Tave refers to the average transmittance within the corresponding wavelength region, and Tmin refers to the minimum transmittance within the corresponding wavelength region.

[5] = Absorption maximum measurement; settings: chloroform, about 10^-5 M
Protocol: The maximum absorption was evaluated by a conventional method. Specifically, the sample was dissolved in chloroform solvent at a concentration of about 10^−5 M and then evaluated using measuring equipment (Agilent, Varian Cary 4000).

| SMILES | Solubility [1] | ΔA = 100×(Af−Ai)/Ai [2] [%] | Δλ = 100×(λf−λi)λi [2] [%] | Af, transmittance at the absorption maximum wavelength [2] [%] | λf, absorption maximum wavelength [2] [nm] | Ai, transmittance at the absorption maximum wavelength [2] [%] | λi, absorption maximum wavelength [2] [nm] | Td 5% [3] [°C] | 425~465 nm Tave, Δ [4] [%] | 425~465 nm Tmin, Δ [4] [%] | 466~480 nm Tave, Δ [4] [%] | 466~480 nm Tmin, Δ [4] [%] | 480~560 nm Tave, Δ [4] [%] | λmax Tmax (transmittance at the absorption maximum), Δ [4] [%] | 425~465 nm Tave, B [4] [%] | 425~465 nm Tmin, B [4] [%] | 466~480 nm Tave, B [4] [%] | 466~480 nm Tmin, B [4] [%] | 480~560 nm Tave, B [4] [%] | 425~465 nm Tave, A [4] [%] | also measured |
| --- | --- | --- | --- | --- | --- | --- | --- | --- | --- | --- | --- | --- | --- | --- | --- | --- | --- | --- | --- | --- | --- |
| CCCCN1\C(=C/C=C/C=C/C=C/C2=[N+](CCCC)c3ccc4ccccc4c3C2(C)C)C(C)(C)c2c1ccc1ccccc21 [Comparative Example 2] | A (When solubility is 1 mass % or more) | 27.1 | 13 | 59.8 | 785 | 47.1 | 784 | 211 | 0 | −0.2 | 0.1 | −0.1 | −0.3 | 12.8 | 89.6 | 88.9 | 90.2 | 89.8 | 91.2 | 89.6 | 425~465 nm Tmin, A [4]: 88.7%; 466~480 nm Tave, A [4]: 90.2%; 466~480 nm Tmin, A [4]: 89.7%; 480~560 nm Tave, A [4]: 90.9%; Maximum Absorption Wavelength [5]: 801 nm |
| CCCCN1/C(=C\C=C2/CCC(/C=C/C3=[N+](CCCC)c4ccccc4C3(C)C)=C2Cl)C(C)(C)c2ccccc21 [Comparative Example 3] | A (When solubility is 1 mass % or more) | 52.6 | −12 | 33.0 | 818 | 21.6 | 819 | 186 | −0.2 | 0 | −0.9 | −0.6 | −1.3 | 11.4 | 87.3 | 86.5 | 88.9 | 88 | 90.4 | 87 | 425~465 nm Tmin, A [4]: 86.6%; 466~480 nm Tave, A [4]: 88%; 466~480 nm Tmin, A [4]: 87.5%; 480~560 nm Tave, A [4]: 89.2%; Maximum Absorption Wavelength [5]: 815 nm |
